From PMC7884679 (British Journal of Cancer, 2020)
Entries after “also recorded” stand apart in the source; their conditions may differ.

How the values were obtained:
PI3K lipid kinases = system: PI3K lipid kinases; parameters: method as in PMID 32220971; settings: cited from earlier work
human cyclooxygenase 1 = target: T1, human cyclooxygenase 1 (Homo sapiens, UniProt P23219); assay: Platelet aggregation in aspirin-naïve patients at the RP2D; format: in vivo; settings: aspirin-naïve cohort, 400 mg BID
T1 construct: endogenous in cells; host or cells: platelets of aspirin-naïve patients treated at the RP2D
T1 sequence (P23219 24-599): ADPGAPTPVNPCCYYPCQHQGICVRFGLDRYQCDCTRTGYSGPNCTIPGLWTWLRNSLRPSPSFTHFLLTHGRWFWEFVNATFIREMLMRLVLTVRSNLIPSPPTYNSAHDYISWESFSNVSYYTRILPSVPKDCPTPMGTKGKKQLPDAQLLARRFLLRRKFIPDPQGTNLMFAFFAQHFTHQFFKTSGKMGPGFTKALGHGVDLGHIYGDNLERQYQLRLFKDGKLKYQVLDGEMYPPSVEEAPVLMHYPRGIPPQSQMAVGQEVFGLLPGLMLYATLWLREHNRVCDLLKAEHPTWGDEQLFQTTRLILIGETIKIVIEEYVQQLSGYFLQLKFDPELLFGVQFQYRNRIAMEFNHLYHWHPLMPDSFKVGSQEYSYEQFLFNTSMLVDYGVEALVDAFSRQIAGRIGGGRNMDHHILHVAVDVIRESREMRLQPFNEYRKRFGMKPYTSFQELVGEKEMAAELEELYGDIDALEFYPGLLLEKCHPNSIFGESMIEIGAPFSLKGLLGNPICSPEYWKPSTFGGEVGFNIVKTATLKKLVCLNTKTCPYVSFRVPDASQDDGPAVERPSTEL

advanced solid tumours = assay: Tumour response by RECIST v1.1; format: in vivo, human
Procedure: (§1) Safety was assessed through the recording, reporting and analysis of baseline medical conditions, AEs, physical examination findings (including vital signs and monitoring for bleeding), laboratory tests, ECOG PS and 12-lead electrocardiograms. […] PK was assessed using blood samples collected pre-treatment and on-treatment. […] Tumour response was evaluated according to RECIST (v1.1). Target and non-target lesions were measured by computed tomography or magnetic resonance imaging every 6 weeks.
(§2) TEAEs were summarised according to Medical Dictionary for Regulatory Activities (v20.0) preferred term and system organ class. All statistical analyses (except for PK) were performed using SAS 9.1.3 or higher. Tumour assessments, based on investigator evaluations of target, non-target and new lesions according to RECIST (v1.1), were used to derive the best overall response. Trial data were summarised by dose level.

[1] = system: patients with advanced solid tumours; assay: Dose escalation 3 + 3: DLT, MTD, RP2D; format: in vivo
Description: Dose escalation was by use of a standard ‘3 + 3’ design, based on the presence/absence of dose-limiting toxicities (DLTs). […] The starting dose was considered to have acceptable safety and to be in the range of the biologically active dose based on in vivo pharmacology data.[7]
The MTD was defined as the dose level below the dose at which two out of six patients experienced a DLT. Once the MTD was established, the RP2D was to be defined by the Safety Monitoring Committee (SMC), either at the MTD level or below, depending on the available safety, efficacy, PK and PD data.
(§3) In addition, a DLT could be identified by the SMC as any TEAE that impaired daily function or abnormality occurring in patients treated with peposertib at any time during the dose escalation part of the study.

clinical = settings: human, in vivo; for AUC(0-t): AUC0–12; for AUC(0-inf): AUC0–∞; for Vd/F: Vz/f
Procedure: as §1
The cut-off for the final analysis was when the last patient completed the dose-escalation phase (29 June 2017). The All Patients Analysis Set comprised all patients who provided informed consent (screening failures plus enrolled patients) and was used to describe patient disposition and deaths. […] The Efficacy Analysis Set, including patients who received at least one treatment dose, was used for all efficacy summaries. […] The Biomarker/Pharmacogenomics Analysis Set included patients who received at least the first dose of study drug and provided at least one pre-dose sample and one post-dose sample.

[2] = system: patients with advanced solid tumours; assay: Safety and tolerability: treatment-emergent adverse events (CTCAE v4.03); format: in vivo
Procedure: as §3, §1, §2

phosphorylation of AKT = system: phosphorylation of AKT; parameters: method as in PMID 32220971; settings: preclinical experiments ref 8; cited from earlier work
platelet aggregation = settings: preclinical data; cited from earlier work
[3] = system: repair of radiation- or chemotherapy-induced DNA DSBs; settings: preclinical studies ref 6–10; cited from earlier work
DNA-PK = settings: preclinical ref 6–8; cited from earlier work

**Q.** For `COc1ccc([C@@H](O)c2cc(-c3ncnc4cc(N5CCOCC5)ccc34)c(F)cc2Cl)nn1` [Peposertib, peposertib], which “potency on PI3K lipid kinases” value (PI3K lipid kinases; compared with DNA-PK, preclinical studies ref 8) is on record?
**A.** significantly lower potency

**Q.** What about the “potency against DNA-PK versus other PI3K and PI3K-related family members” value (PI3K lipid kinases; preclinical ref 8) of the same molecule?
**A.** substantially greater

**Q.** And the “effect on platelet aggregation” value (human cyclooxygenase 1)?
**A.** very weak effect; also recorded: only a weak effect

**Q.** What about the “patients with stable disease for ≥12 weeks” value (advanced solid tumours; RECIST v1.1) of the same molecule?
**A.** seven

**Q.** And the “objective tumour responses (complete or partial)” value (advanced solid tumours; RECIST v1.1, all doses)?
**A.** No objective tumour responses

**Q.** What about the “duration of stable disease” value (advanced solid tumours; one patient, metastatic hepatocellular carcinoma, prior progression on sorafenib, at data cut-off) of the same molecule?
**A.** 69 weeks

**Q.** What about the patients not evaluable (advanced solid tumours; tumour assessment at screening only) of the same molecule?
**A.** 16%

**Q.** What about the “time remained on treatment” value (advanced solid tumours; two patients (metastatic renal cell carcinoma; tonsillar squamous cell carcinoma), 400 mg BID) of the same molecule?
**A.** 36 weeks

**Q.** And the “maximum-tolerated dose (MTD)” value ([1]; dose escalation up to 400 mg BID)?
**A.** not reached

**Q.** And the “recommended phase 2 dose (RP2D)” value ([1]; human, in vivo, 21 days)?
**A.** 400 mg BID

**Q.** And the Tmax (clinical)?
**A.** 1.5 h

**Q.** What about the “geometric mean percent coefficient of variation (%CV) for Cmax” value (clinical) of the same molecule?
**A.** 15.5–117%

**Q.** What about the AUC(0-t) (clinical; 100 mg) of the same molecule?
**A.** 2290 ng·h/mL

**Q.** And the AUC(0-inf) (clinical; 100 mg)?
**A.** 2920 ng·h/mL

**Q.** What about the Cmax (clinical; 100 mg) of the same molecule?
**A.** 440 ng/mL

**Q.** What about the Vd/F (clinical; 100 mg) of the same molecule?
**A.** 276 L

**Q.** What about the half-life (clinical; 100 mg, t1/2) of the same molecule?
**A.** 5.5 h

**Q.** And the Tmax (clinical; 100 mg, tmax)?
**A.** 1.8 h

**Q.** What about the AUC(0-t) (clinical; 150 mg) of the same molecule?
**A.** 3040 ng·h/mL

**Q.** And the AUC(0-inf) (clinical; 150 mg)?
**A.** 3770 ng·h/mL

**Q.** What about the Cmax (clinical; 150 mg) of the same molecule?
**A.** 695 ng/mL

**Q.** And the Vd/F (clinical; 150 mg)?
**A.** 304 L

**Q.** And the half-life (clinical; 150 mg, t1/2)?
**A.** 5.1 h

**Q.** And the Tmax (clinical; 200 mg, tmax)?
**A.** 1.4 h

**Q.** And the Vd/F (clinical; 300 mg)?
**A.** 662 L

**Q.** What about the half-life (clinical; 300 mg, t1/2) of the same molecule?
**A.** 4.7 h

**Q.** What about the Tmax (clinical; 300 mg, tmax) of the same molecule?
**A.** 1.9 h

**Q.** What about the AUC(0-inf) (clinical; 400 mg) of the same molecule?
**A.** 4140 ng·h/mL

**Q.** What about the Tmax (clinical; 400 mg, tmax) of the same molecule?
**A.** 2.4 h

**Q.** What about the half-life (clinical; mean elimination half-life) of the same molecule?
**A.** ~5.5 h

**Q.** And the Tmax (clinical; po, median tmax)?
**A.** 1.1 to 2.5 h

**Q.** What about the “Number of patients with: Any TEAE leading to death” value (shortened to “Number … Any TEAE leading to death”) ([2]; 100/QD n = 3) of the same molecule?
**A.** 0 (0) n (%)

**Q.** What about the “Number of patients with: Any peposertib related TEAE leading to death” value ([2]; 100/QD n = 3) of the same molecule?
**A.** 0 (0) n (%)

**Q.** And the “Number … Any TEAE leading to death” value ([2]; 150/BID n = 3)?
**A.** 0 (0) n (%)

**Q.** What about the “Number of patients with: Any peposertib related TEAE leading to death” value ([2]; 150/BID n = 3) of the same molecule?
**A.** 0 (0) n (%)

**Q.** What about the “Number … Any TEAE leading to death” value ([2]; 200/BID n = 3) of the same molecule?
**A.** 0 (0) n (%)

**Q.** What about the “Number of patients with: Any peposertib related TEAE leading to death” value ([2]; 200/BID n = 3) of the same molecule?
**A.** 0 (0) n (%)

**Q.** What about the “Number … Any TEAE leading to death” value ([2]; 200/QD n = 3) of the same molecule?
**A.** 0 (0) n (%)

**Q.** And the “Number of patients with: Any peposertib related TEAE leading to death” value ([2]; 200/QD n = 3)?
**A.** 0 (0) n (%)

**Q.** What about the “Number … Any TEAE leading to death” value ([2]; 300/BID n = 9) of the same molecule?
**A.** 0 (0) n (%)

**Q.** What about the “Number of patients with: Any peposertib related TEAE leading to death” value ([2]; 300/BID n = 9) of the same molecule?
**A.** 0 (0) n (%)

**Q.** And the “Number … Any TEAE leading to death” value ([2]; 400/BID (RP2D) n = 6)?
**A.** 0 (0) n (%)

**Q.** What about the “Number of patients with: Any peposertib related TEAE leading to death” value ([2]; 400/BID (RP2D) n = 6) of the same molecule?
**A.** 0 (0) n (%)

**Q.** And the “Number … Any TEAE leading to death” value ([2]; 400/BID n = 4)?
**A.** 1 (25) n (%)

**Q.** And the “Number of patients with: Any peposertib related TEAE leading to death” value ([2]; 400/BID n = 4)?
**A.** 0 (0) n (%)

**Q.** What about the “Number … Any TEAE leading to death” value ([2]; Total N = 31) of the same molecule?
**A.** 1 (3) n (%)

**Q.** What about the “Number of patients with: Any peposertib related TEAE leading to death” value ([2]; Total N = 31) of the same molecule?
**A.** 0 (0) n (%)

**Q.** What about the “Grade 3 peposertib-related maculo-papular rash, patients” value ([2]; human, in vivo) of the same molecule?
**A.** 4 n

**Q.** And the “Grade 3 peposertib-related nausea, patients” value ([2]; human, in vivo)?
**A.** 2 n

**Q.** And the “Number of patients with: Any peposertib-related Grade ≥4 TEAE” value ([2]; human, in vivo)?
**A.** 0 (0) n (%)

**Q.** And the “TEAE constipation, patients” value ([2]; human, in vivo)?
**A.** 10 n

**Q.** What about the “TEAE fatigue, patients” value ([2]; human, in vivo) of the same molecule?
**A.** 14 n

**Q.** And the “TEAE nausea, patients” value ([2]; human, in vivo)?
**A.** 17 n

**Q.** What about the “TEAE pyrexia, patients” value ([2]; human, in vivo) of the same molecule?
**A.** 11 n

**Q.** What about the “Treatment-related TEAE: Constipation, Grade 3” value ([2]; human, in vivo) of the same molecule?
**A.** 0 (0) n (%)

**Q.** What about the “Treatment-related TEAE: Decreased appetite, Grade 3” value ([2]; human, in vivo) of the same molecule?
**A.** 0 (0) n (%)

**Q.** What about the “Treatment-related TEAE: Diarrhoea, Grade 3” value ([2]; human, in vivo) of the same molecule?
**A.** 0 (0) n (%)

**Q.** What about the “Treatment-related TEAE: Dry mouth, Grade 3” value ([2]; human, in vivo) of the same molecule?
**A.** 0 (0) n (%)

**Q.** What about the “Treatment-related TEAE: Periorbital oedema, Grade 3” value ([2]; human, in vivo) of the same molecule?
**A.** 0 (0) n (%)

**Q.** And the “Treatment-related TEAE: Vomiting, Grade 3” value ([2]; human, in vivo)?
**A.** 0 (0) n (%)

**Q.** What about the “patients with a serious TEAE” value ([2]; human, in vivo) of the same molecule?
**A.** 55%

**Q.** And the “patients with at least one TEAE” value ([2]; human, in vivo)?
**A.** 31 patients

**Q.** What about the “patients with at least one TEAE of Grade ≥3” value ([2]; human, in vivo) of the same molecule?
**A.** 68%

**Q.** What about the “patients with peposertib-related Grade 3 TEAEs” value ([2]; human, in vivo) of the same molecule?
**A.** 23%

**Q.** And the “peposertib-related Grade 4 TEAEs” value ([2]; human, in vivo)?
**A.** no peposertib-related Grade 4 TEAEs

**Q.** And the deaths considered treatment-related ([2]; three patients died due to disease progression)?
**A.** None

**Q.** And the “inhibition of the phosphorylation of AKT” value (phosphorylation of AKT)?
**A.** only moderate inhibition

**Q.** What about the “inhibition of platelet aggregation” value (platelet aggregation) of the same molecule?
**A.** reversible inhibition of platelet aggregation at micromolar concentrations

**Q.** What about the “synergy with radiotherapy and DSB-inducing chemotherapies (e.g. etoposide, doxorubicin)” value [3] of the same molecule?
**A.** demonstrated synergy

**Q.** And the “concentrations blocking DNA-PK kinase activity” value (DNA-PK)?
**A.** sub-nanomolar
